Results taken from patent US20240069408A1, “LIGHT ABSORPTION MATERIAL, RECORDING MEDIUM, INFORMATION RECORDING METHOD, AND INFORMATION READING METHOD” (Panasonic Intellectual Property Management Co., Ltd., priority 2021, published 2024).

Tests used:
[1] = Measurement of two-photon absorption cross-section (z-scan technique, 405 nm); assay type: physicochemical; settings: for Two-photon absorption cross-section σ: light of wavelength 405 nm, Ti:sapphire pulsed laser second harmonic, pulse width 80 fs, 1 kHz; for Ratio σ/ε: two-photon absorption cross-section σ (GM) to molar absorption coefficient ε at 405 nm
Source text: The two-photon absorption cross-section of the compound A irradiated with light having a wavelength of 405 nm may be greater than or equal to 1 GM, may be greater than or equal to 10 GM, may be greater than or equal to 30 GM, may be greater than or equal to 50 GM, may be greater than or equal to 70 GM, may be greater than or equal to 100 GM, may be greater than or equal to 200 GM, or may be greater than or equal to 300 GM. The upper limit of the two-photon absorption cross-section of the compound A is not particularly limited, and is, for example, 10000 GM. For example, the two-photon absorption cross-section may be measured by the z-scan technique described in J. Opt. Soc. Am. B, 2003, Vol. 20, p. 529. The z-scan technique is widely used as a method for measuring non-linear optical constants. In the z-scan technique, a measurement sample is moved along the beam irradiation direction near the focal point at which the laser beam is focused. During this process, the change in the amount of light transmitted through the measurement sample is recorded. In the z-scan technique, the power density of incident light changes depending on the location of the measurement sample. Thus, when the measurement sample absorbs light non-linearly, the amount of transmitted light is attenuated when the measurement sample is located near the focal point of the laser beam. The two-photon absorption cross-section may be calculated by fitting the changes in the amount of transmitted light based on the theoretical curve predicted from conditions, such as the intensity of the incident light, the thickness of the measurement sample, and the concentration of the compound A in the measurement sample.
The two-photon absorption cross-section of the compounds of Examples and Comparative Examples was measured with respect to light having a wavelength of 405 nm. The measurement of the two-photon absorption cross-section was performed using the z-scan technique described in J. Opt. Soc. Am. B, 2003, Vol. 20, p. 529. The light source used for the measurement of the two-photon absorption cross-section was a Ti:sapphire pulsed laser. Specifically, second harmonic waves from the Ti:sapphire pulsed laser were applied to the sample. The pulse width of the laser was 80 fs. The repetition frequency of the laser was 1 kHz. The average power of the laser was changed in the range of greater than or equal to 0.01 mW and less than or equal to 0.08 mW. […] The full width at half maximum of the light from the laser was 4 nm.

[2] = Measurement of molar absorption coefficient (JIS K0115: 2004, 405 nm); assay type: physicochemical; settings: absorbance at 405 nm; compound concentration 500 mmol/L
Source text: The molar absorption coefficient of the compound A with respect to light having a wavelength of 405 nm may be less than or equal to 50 mol^−1·L·cm^−1, may be less than or equal to 10 mol^−1·L·cm^−1, may be less than or equal to 5 mol^−1·L·c^−1, may be less than or equal to 2 mol^−1·L·cm^−1, or may be less than or equal to 1 mol^−1·L·cm^−1. The lower limit of the molar absorption coefficient of the compound A is not particularly limited, and is, for example, 0.01 mol^−1·L·cm^−1. The molar absorption coefficient may be measured by, for example, a method in accordance with the manual specified in Japanese Industrial Standards (JIS) K0115: 2004. […] In the measurement of the molar absorption coefficient, furthermore, the concentration of the compound A is adjusted to 500 mmol/L. This concentration is very high compared to the concentration in the measurement test of the molar absorption coefficient of an optical absorption peak. The molar absorption coefficient may be used as an index of one-photon absorption.
The compounds of Examples and Comparative Examples were analyzed by a method in accordance with JIS K0115: 2004 to measure the molar absorption coefficient. Specifically, first, a measurement sample was provided in which the concentration of the compound had been controlled to 500 mmol/L. An absorption spectrum of the measurement sample was measured. From the spectrum obtained, the absorbance at a wavelength of 405 nm was read. The molar absorption coefficient was calculated based on the concentration of the compound in the measurement sample and the optical path length of the cell used for the measurement.

Structure (SMILES)	Two-photon absorption cross-section σ [1]	Ratio σ/ε [1]	Molar absorption coefficient ε [2]
COc1cc(Br)c(-c2cc(OC)c(OC)cc2-c2cc(OC)c(OC)cc2-c2cc(OC)c(OC)cc2Br)cc1OC [Ex. 1]	51 GM	38	1.34 L/mol/cm
COc1cc(Br)c(-c2cc(OC)c(OC)cc2-c2cc(OC)c(OC)cc2-c2cc(OC)c(OC)cc2-c2cc(OC)c(OC)cc2-c2cc(OC)c(OC)cc2-c2cc(OC)c(OC)cc2-c2cc(OC)c(OC)cc2Br)cc1OC [Ex. 2]	73 GM	72	1.01 L/mol/cm
COc1cc(Br)c(-c2cc(OC)c(OC)cc2-c2cc(OC)c(OC)cc2-c2cc(OC)c(OC)cc2-c2cc(OC)c(OC)cc2-c2cc(OC)c(OC)cc2-c2cc(OC)c(OC)cc2-c2cc(OC)c(OC)cc2-c2cc(OC)c(OC)cc2-c2cc(OC)c(OC)cc2-c2cc(OC)c(OC)cc2-c2cc(OC)c(OC)cc2Br)cc1OC [Ex. 3]	71 GM	142	0.50 L/mol/cm
COc1cc(Br)c(-c2cc(OC)c(OC)cc2-c2cc(OC)c(OC)cc2-c2cc(OC)c(OC)cc2-c2cc(OC)c(OC)cc2-c2cc(OC)c(OC)cc2-c2cc(OC)c(OC)cc2-c2cc(OC)c(OC)cc2-c2cc(OC)c(OC)cc2-c2cc(OC)c(OC)cc2-c2cc(OC)c(OC)cc2-c2cc(OC)c(OC)cc2-c2cc(OC)c(OC)cc2-c2cc(OC)c(OC)cc2Br)cc1OC [Ex. 4]	82 GM	167	0.49 L/mol/cm
COc1cc(Br)c(-c2cc(OC)c(OC)cc2-c2cc(OC)c(OC)cc2-c2cc(OC)c(OC)cc2-c2cc(OC)c(OC)cc2-c2cc(OC)c(OC)cc2-c2cc(OC)c(OC)cc2-c2cc(OC)c(OC)cc2-c2cc(OC)c(OC)cc2-c2cc(OC)c(OC)cc2-c2cc(OC)c(OC)cc2-c2cc(OC)c(OC)cc2-c2cc(OC)c(OC)cc2-c2cc(OC)c(OC)cc2-c2cc(OC)c(OC)cc2-c2cc(OC)c(OC)cc2Br)cc1OC [Ex. 5]	336 GM	223	1.51 L/mol/cm
COc1cc(Br)c(-c2cc(OC)c(OC)cc2-c2cc(OC)c(OC)cc2Br)cc1OC [OP3Br]	could not be measured	–	–
C(#Cc1c(C#Cc2ccccc2)c(C#Cc2ccccc2)c(C#Cc2ccccc2)c(C#Cc2ccccc2)c1C#Cc1ccccc1)c1ccccc1 [compound 1, hexakis(phenylethynyl)benzene, reference compound]	23000 GM	10	2730 L/mol/cm
OC(C#Cc1ccc(N(c2ccc(C#CC(O)(c3ccccc3)c3ccccc3)cc2)c2ccc(C#CC(O)(c3ccccc3)c3ccccc3)cc2)cc1)(c1ccccc1)c1ccccc1 [compound 2, reference compound]	380 GM	5	70 L/mol/cm
